From patent publication US11413269B2, “Compositions for improved NRF2 activation and methods of their use” (PATHWAYS BIOSCIENCE, LLC, priority 2015, dated 2022)

Test system: Nrf2
Assay: ARE-driven luciferase promoter/reporter assay in stably transfected cell lines
Type: cell-based, human
Settings: low concentrations
Procedure: Briefly, the stably transfected cells of types HepG2 (human liver), AREc32 (human breast), MCF7 (human breast), A549 (human lung), 293T (human kidney), and A172 (human brain) were seeded at low density in 24-well plates and incubated at 37° C. with 10% CO2. […] After an additional 18 h of incubation, the cells were lysed in their wells with 100 μl of a lysing buffer that contains 3.5 mM sodium pyrophosphate to stabilize light output by luciferase. A 20 μl aliquot of cell lysate was added to a small test tube, placed in a BD Monolight 3010 luminometer for background luminescence, and then 50 μl of 1 mM luciferin was injected into the tube. Relative Light Units integrated for 10 sec were measured for each sample.

O=c1cc(-c2ccc(O)c(O)c2)oc2cc(O)cc(O)c12 [Luteolin, luteolin]
synergy with combinations of Rosemary extracts and Ginger extracts to activate Nrf2: synergized
